Results published in patent publication US9625449B2, “Determining the bioavailability of zinc (II) ions” (Colgate-Palmolive Company, priority 2014, dated 2017).

Assays:
Type in all cases: physicochemical
[1] = Reaction of zincon with metal ions (colour change): Fe2+; details: solution with Fe^2+
Text: (§1) Certain dyes used to detect zinc ions also react with other metal ions. For example, Eriochrome Black T reacts with Mg^2+ and Ca^2+ ions, which are commonly encountered in biological tissues. Sources of calcium ions are frequently included in oral care compositions.

[2] = Reaction of zincon with metal ions (colour change): Co2+; details: solution with Co^2+
Text: as §1

[3] = Reaction of zincon with metal ions (colour change): Ca2+; details: solution with Ca^2+
Text: as §1

[4] = Reaction of zincon with metal ions (colour change): Zn2+; details: solution with Zn^2+
Text: as §1

[5] = Reaction of zincon with metal ions (colour change): Cu2+; details: solution with Cu^2+
Text: as §1

[6] = Absorbance of zincon as function of pH (detection of zinc)
Text: It has been reported in the literature that the working pH range for zincon is pH 8.5 to 9.5 (Yoe and Rush, 1952. “A new colorimetric reagent for zinc”, Analytica Chimica Acta, vol. 6, pp 526 to 527).

[7] = Reaction of zincon with metal ions (colour change): Mg2+; details: solution with Mg^2+
Text: as §1

O=C(O)c1ccccc1N=NC(=NNc1cc(S(=O)(=O)[O-])ccc1O)c1ccccc1.[Na+] [zincon, o-[α-(2-hydroxy-5-sulfophenylazo)-benzylidene hydrazino]benzoic acid]
colour change of zincon [1]: green solution | colour change of zincon [2]: sky blue solution | colour change of zincon [3]: did not undergo a colour change | colour change of zincon [4]: deep blue complex | colour change of zincon [5]: difficult to distinguish from that of Zn^2+ | Absorbance of sample at 610 nm ([6]; pH 7.0): 0.233 | Absorbance of sample at 610 nm ([6]; pH 7.5): 0.232 | Absorbance of sample at 610 nm ([6]; pH 8.0): 0.245 | Absorbance of sample at 610 nm ([6]; pH 8.5): 0.251 | Absorbance of sample at 610 nm ([6]; pH 9.5): 0.252 | colour change of zincon [7]: did not undergo a colour change
